# Laboratory results as given in patent US5688938A, “Calcium receptor-active molecules” (priority 1995, dated 1997).
# Entries after “also recorded” stand apart in the source; their conditions may differ. Like-named read-outs stand apart in the source and are kept apart here.
# Key:
# Type in all cases: cell-based
# C-cell calcium receptor = biological target: T1, C-cell calcium receptor (Rattus norvegicus, UniProt P48442); assay: cell-based; settings: for EC50: rMTC 6-23 cells
# T1 construct: Neoplastic C-cells derived from a rat medullary thyroid carcinoma (rMTC 6-23) were obtained from American Type Culture Collection; host or cells: rMTC 6-23 cells
# T1 sequence (P48442 20-1079): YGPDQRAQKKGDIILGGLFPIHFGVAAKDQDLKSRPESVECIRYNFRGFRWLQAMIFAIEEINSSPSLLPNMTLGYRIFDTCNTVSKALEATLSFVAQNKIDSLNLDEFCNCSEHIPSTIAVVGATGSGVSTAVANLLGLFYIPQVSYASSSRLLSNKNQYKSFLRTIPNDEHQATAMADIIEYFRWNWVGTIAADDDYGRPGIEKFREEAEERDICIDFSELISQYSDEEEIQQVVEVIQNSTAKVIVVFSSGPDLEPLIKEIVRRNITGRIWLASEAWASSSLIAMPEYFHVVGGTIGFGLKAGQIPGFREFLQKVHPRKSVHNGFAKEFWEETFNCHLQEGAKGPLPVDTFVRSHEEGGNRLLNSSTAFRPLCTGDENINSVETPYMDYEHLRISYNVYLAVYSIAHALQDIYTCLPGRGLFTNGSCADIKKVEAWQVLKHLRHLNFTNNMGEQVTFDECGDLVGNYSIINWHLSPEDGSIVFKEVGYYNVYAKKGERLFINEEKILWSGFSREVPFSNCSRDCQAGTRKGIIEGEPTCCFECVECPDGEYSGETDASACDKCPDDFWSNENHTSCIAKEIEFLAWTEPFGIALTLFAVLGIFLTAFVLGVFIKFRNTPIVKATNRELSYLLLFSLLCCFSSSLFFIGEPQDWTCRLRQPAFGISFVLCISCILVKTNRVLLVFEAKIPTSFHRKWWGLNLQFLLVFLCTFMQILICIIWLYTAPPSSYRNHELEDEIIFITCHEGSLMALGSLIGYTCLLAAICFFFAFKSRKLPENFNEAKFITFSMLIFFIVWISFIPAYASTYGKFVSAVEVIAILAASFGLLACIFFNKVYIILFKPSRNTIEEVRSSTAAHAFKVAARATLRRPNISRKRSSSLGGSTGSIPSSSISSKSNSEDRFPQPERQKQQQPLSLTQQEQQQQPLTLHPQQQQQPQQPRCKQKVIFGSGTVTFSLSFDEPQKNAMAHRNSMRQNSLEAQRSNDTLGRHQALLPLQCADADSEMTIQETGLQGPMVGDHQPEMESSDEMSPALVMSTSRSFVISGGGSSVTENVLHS
# Description: To assess the effects of molecular polycations on C-cells, a neoplastic cell line, derived from a rat medullary thyroid carcinoma (rMTC 6-23 cells) was used.
# [1] = system: osteoclast calcium receptor; assay: [Ca^2+]i (indo-1) in rat osteoclasts
# [2] = biological target: T2, bovine parathyroid cell calcium receptor (Bos taurus, UniProt P35384); assay: Cl^- current in Xenopus oocytes expressing BoPCaR 1
# T2 construct: expressed in transfected cells; host or cells: Xenopus laevis oocytes injected with cRNA from BoPCaR 1
# T2 sequence (P35384 21-1085 limits assumed): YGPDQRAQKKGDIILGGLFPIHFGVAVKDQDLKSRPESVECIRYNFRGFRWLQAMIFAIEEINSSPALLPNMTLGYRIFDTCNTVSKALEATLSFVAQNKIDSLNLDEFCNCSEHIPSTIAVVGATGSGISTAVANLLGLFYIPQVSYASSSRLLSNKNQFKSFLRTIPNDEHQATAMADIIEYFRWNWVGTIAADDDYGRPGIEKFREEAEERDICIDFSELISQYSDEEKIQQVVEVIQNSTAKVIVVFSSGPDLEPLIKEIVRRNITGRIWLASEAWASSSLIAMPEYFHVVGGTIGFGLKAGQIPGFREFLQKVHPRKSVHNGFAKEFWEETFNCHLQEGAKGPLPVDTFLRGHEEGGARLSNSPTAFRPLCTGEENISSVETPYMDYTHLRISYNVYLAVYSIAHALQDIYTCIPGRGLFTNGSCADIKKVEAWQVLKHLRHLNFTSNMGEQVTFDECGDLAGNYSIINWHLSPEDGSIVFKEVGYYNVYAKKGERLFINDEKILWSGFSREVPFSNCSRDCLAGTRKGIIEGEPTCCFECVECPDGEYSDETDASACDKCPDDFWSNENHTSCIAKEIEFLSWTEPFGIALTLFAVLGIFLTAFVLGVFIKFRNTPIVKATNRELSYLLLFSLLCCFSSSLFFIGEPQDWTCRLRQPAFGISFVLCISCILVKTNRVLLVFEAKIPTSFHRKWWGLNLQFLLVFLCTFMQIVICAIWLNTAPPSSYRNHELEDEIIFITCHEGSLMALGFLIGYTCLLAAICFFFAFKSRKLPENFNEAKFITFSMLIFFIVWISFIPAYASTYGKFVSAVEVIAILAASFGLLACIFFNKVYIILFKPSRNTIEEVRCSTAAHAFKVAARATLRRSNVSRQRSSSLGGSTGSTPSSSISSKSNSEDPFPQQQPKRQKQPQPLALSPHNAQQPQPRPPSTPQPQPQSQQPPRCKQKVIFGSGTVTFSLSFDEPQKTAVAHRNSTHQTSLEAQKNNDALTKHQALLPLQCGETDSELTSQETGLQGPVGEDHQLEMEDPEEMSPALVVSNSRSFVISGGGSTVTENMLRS
# Protocol: These responses are mediated by the following series of biochemical events:
# Xenopus oocytes were injected with BoPCaR 1, the 5.3 Kb cDNA encoding a bovine parathyroid cell calcium receptor as described in Example 25. After two to three days, Cl^- currents were examined in the oocytes using a two-electrode voltage clamp.
# Xenopus oocytes were injected with BoPCaR 1 as described in Example 25. After two to three days, Cl^- currents were examined in the oocytes using two electrode voltage clamp.
smiles,measurement,setting,value
"NCCCNCCCCNCCCNCCCNCCCNC(=O)Cc1c[nH]c2ccccc12 [NPS 019, reference compound]",transient increase in [Ca^2+]i in C-cells,"C-cell calcium receptor; 10 μM, 0.5 mM [Ca^2+]",refractory to inhibition by La^3+
same,EC50,"C-cell calcium receptor; Table 6, read-out: EC50 C-CELL",5 µM
same,EC50,C-cell calcium receptor; read-out: EC50 for mobilizing intracellular Ca^2+ in C-cells,5 µM
same,EC50,"[1]; Table 6, rat osteoclasts",> 300 µM
same,Cl^- current response in absence of extracellular Ca^2+,[2],persisted
same,Cl^- current,[2]; 1 mM extracellular Ca^2+,oscillatory increases in the Cl^- current
NC[C@@H]1O[C@H](O[C@H]2[C@@H](O)[C@H](O[C@@H]3[C@@H](O)[C@H](N)C[C@H](N)[C@H]3O[C@H]3O[C@H](CN)[C@@H](O)[C@H](O)[C@H]3N)O[C@@H]2CO)[C@H](N)[C@@H](O)[C@@H]1O [Neomycin],effect on basal [Ca^2+]i in C-cells,C-cell calcium receptor,without effect on basal [Ca^2+ ]i
same,effect on osteoclast response to extracellular Ca^2+,[1],did not block the increase
same,increase in [Ca^2+]i in osteoclasts,[1],failed to evoke any increase in [Ca^2+ ]i; also recorded: Neither neomycin (10 mM) nor spermine (10 or 20 mM) caused increases
same,increase in [Ca^2+]i in osteoclasts or effect on basal,[1]; neomycin B 5 mM,without effect on basal [Ca^2+ ]i
same,inward currents,"[2]; Ca^2+ 5 mM, Mg^2+ 1.0-20 mM, Gd^3+ 600 μM, neomycin 200 μM",large inward currents
"COc1cccc([C@@H](C)NCCCc2ccccc2Cl)c1 [NPS R-568, (R)-(+)-N-[3-(2-chlorophenyl)propyl]-α-methyl-3-methoxybenzylamine]",Cl^- current response in absence of extracellular Ca^2+,[2],abolished
same,effect on concentration-response curve of NPS 019,[2],shifts the concentration-response curve of NPS 019 to the left
same,effect on responses to submaximal extracellular Ca^2+,[2],potentiated the responses
